Measured values: patent publication US20140113904A1, “TREATMENT OF CANCER WITH TOR KINASE INHIBITORS” (SIGNAL PHARMACEUTICALS, LLC, priority 2012, published 2014)

Columns and labels:
S6RP (S235/236) = assay: Phospho-S6RP (S235/S236) in PC-3 cell lysates, MSD (Compound 2); format: cell-based; conditions: Homo sapiens; PC-3, 1 hour; read-out: mTORC1 S6RP (S235/236) IC50
DNA-PKcs = assay: Total DNA-PKcs immunohistochemistry in PC3 tumors (Compound 2); format: in vivo, SCID mice; conditions: 5 mg/kg QD for 6 days, 2 hours after the last dose
Akt(T308) = assay: Phospho-Akt(T308) in PC3 cell lysates, MSD; format: cell-based, human; conditions: PC3, 1 hour exposure; read-out: p-Akt(T308) IC50
Excerpt: The direct substrate for TORC1 was 4E-BP 1(T46) and indirect downstream substrate was S6RP(S235/S236). The direct substrate for TORC2 was Akt(S473) and indirect downstream substrates measured were GSK3β(S9) and PRAS40(T246). Additionally, the phosphorylation status of Akt(T308), a phosphorylation site for PDK1 was monitored.
MSD® biomarker detection assays provide a rapid and convenient method for measuring the total and phosphorylated levels of protein targets within a single small volume sample. These assays are available in both single-plex and multiplex formats. In a single-plex assay, an antibody for a specific protein target is coated on one electrode (or spot) per well. […] MSD Read Buffer that provides the appropriate chemical environment for ECL is added and the plate is read using an MSD SECTOR™ Imager. […] The instrument measures intensity of the emitted light to afford a quantitative measure of the amount of phosphorylated Akt or S6RP present in the sample. […]
The assay plate was incubated with 150 μL of MSD Blocker A Solution for 1 hour with shaking at room temperature. […] Then 150 μL of 1×MSD Read Buffer T was added to each well. The plate was read on the SECTOR Imager plate reader. The Excel data was transferred to Activity Base and IC50 values were calculated.
(§1) All data was analyzed using XLfit from IDBS. […]

[1] = Mouse plasma protein binding; format: in vitro ADME; conditions: Compound 1
PC3 cells = assay: WST-1 cell proliferation assay (Compound 1, rapamycin); format: cell-based, human; conditions: read-out: Compound 1 Growth Inhibition IC50; PC3, 3 days
Method: All test wells were in triplicate on the plate and in a final volume of 200 μL. The final concentration of DMSO in all wells was 0.2%. […] All growth inhibition experiments were repeated on different occasions at least twice. Potency was determined from calculating the IC50 value from the data describing the growth inhibition curve. A reference compound was included in each plate assay to monitor inter-assay variation and the IC50 from the reference was used as part of the acceptance criteria for the assay.
Next, compound was added to the designated well at a dilution of 1:10 (i.e., 20 μL of the diluted compound was added to 180 μL of culture media in each well). The final dilution of compound was 1:500 which yielded a final DMSO concentration of 0.2% in each well. All concentrations were performed in triplicate. […] Absorbance was measured at 450 nm on the VICTOR™ X2 multilabel plate reader (PerkinElmer).
Raw data was saved as a text file and then entered into Activity Base (Cell-based SAR; Prolif-MTT, MTT-6pt-5plates unfixed fit. Version2). The software (XLfit from IDBS) calculated the percent inhibition at each compound concentration by normalizing to the DMSO control values for each set of triplicate wells. Percent inhibition curves were plotted and IC50 values calculated.
as §1

[2] = Body weight in Compound 1 PC3 xenograft efficacy studies; format: in vivo, SCID mice
Method: The BID dose groups were dosed with a 10-hour separation between the morning and evening doses. […] At the end of each study, plasma and/or tumor samples were collected.
Initial body weights were recorded prior to the initiation of treatment using a digital scale. The percent body weight change during the course of the study was calculated using initial body weight measurements. Body weights of each animal were measured twice a week at the same time that tumor measurements were taken. Body weights were measured more frequently if significant decreases were noted during the course of the study.

IC50 (S6RP (S235/236)) [nM] | IC50 (Akt(T308)) [nM] | mouse plasma protein binding [1] [%] | IC50 (PC3 cells) [nM] | Structure (SMILES) | positive threshold area stained for DNA-PKcs vs vehicle (DNA-PKcs) | change in body weight ([2]; 10 mg/kg QD, 3 weeks, data not shown) | loss of initial body mass ([2]; 25 mg/kg QD, end of the first cycle) | body weight loss ([2]; 25 mg/kg QD, intermittent dosing study period) | body weight change ([2]; 25 mg/kg QD, second dosing cycle) | loss of initial body weight ([2]; regression study, 25 mg/kg QD, by Day 26, euthanized)
23 ± 7 | – | – | – | CCN1C(=O)CNc2ncc(-c3ccc(-c4nc[nH]n4)nc3C)nc21 [Compound 2, 1-ethyl-7-(2-methyl-6-(1H-1,2,4-triazol-3-yl)pyridin-3-yl)-3,4-dihydropyrazino[2,3-b]pyrazin-2(1H)-one] | no significant difference | – | – | – | – | –
– | 130 | 88 | 110 | CO[C@H]1CC[C@H](N2C(=O)CNc3ncc(-c4ccc(C(C)(C)O)nc4)nc32)CC1 [Compound 1, 7-(6-(2-hydroxypropan-2-yl)pyridin-3-yl)-1-((1r,4r)-4-methoxycyclohexyl)-3,4-dihydropyrazino-[2,3-b]pyrazin-2(1H)-one] | – | No significant change | approximately 10% | about 10% | about 5% | over 19%
